Results published in patent US5866681A, “Thrombin receptor antagonists” (priority 1995, dated 1999).
*1 amine or outer side, *2 acyl side, *3 side chain or, on linkers, in order; H or OH if unused. Where a SMILES comes first, the peptide text is derived from it. [ ]: non-standard residue; d: D form. The star is where a group is joined. X18 = CN(CC(c1ccccc1)c1ccccc1)[C@@H](Cc1ccccc1)C(=O)*; X25 = CN(Cc1ccc(-c2ccccc2)cc1)[C@@H](Cc1ccccc1)C(=O)*; X1 = CN(Cc1cccc(Oc2ccccc2)c1)[C@@H](Cc1ccccc1)C(=O)*; X10 = O=C([C@H](Cc1ccccc1)N(CCCc1ccccc1)[*:1])[*:2]; X14 = O=C([C@H](Cc1ccccc1)N(CC1CCCCC1)CC1CCCCC1)*; X23 = O=C([C@H](Cc1ccccc1)N(CCC1CCCC1)[*:1])[*:2]; X24 = CC(C)CCN([C@@H](Cc1ccccc1)C(=O)[*:2])[*:1]; X22 = CCCCCN([C@@H](CCc1ccccc1)C(=O)[*:2])[*:1]; X3 = CCCCCCCN([C@@H](Cc1ccccc1)C(=O)[*:2])[*:1]; X16 = CCCCCN([C@@H](Cc1ccccc1)C(=O)[*:2])[*:1]; X17 = CSCCCN([C@@H](Cc1ccccc1)C(=O)[*:2])[*:1]; X12 = CCCCCN([C@H](Cc1ccccc1)C(=O)[*:2])[*:1]; X15 = CCCCN([C@@H](Cc1ccccc1)C(=O)[*:2])[*:1]; X13 = CN(CC1CCCCC1)[C@@H](Cc1ccccc1)C(=O)*; X6 = CCCCCN(CCCCC)[C@@H](Cc1ccccc1)C(=O)*; X9 = CN(Cc1ccccc1)[C@@H](Cc1ccccc1)C(=O)*; X11 = O=C([C@@H]1Cc2ccccc2CN1CC1CCCCC1)*; Benzoyl(2-Ph) = O=C(c1ccccc1-c1ccccc1)*; X19 = CC(C)(C)CN1Cc2ccccc2C[C@H]1C(=O)*; Butanoyl(2-OPh) = CCC(Oc1ccccc1)C(=O)*; X5 = CCCCCN(C)[C@@H](Cc1ccccc1)C(=O)*; X7 = CCCCCCC(Oc1ccc2ccccc2c1)C(=O)*; X20 = CCCCC(Oc1cccc2ccccc12)C(=O)*; X4 = CCCCCN1Cc2ccccc2C[C@H]1C(=O)*; Cha = N[C@@H](CC1CCCCC1)C(=O)O; X21 = CCCCC(Oc1ccccc1)C(=O)*

molecular target: T1, thrombin receptor (Homo sapiens, UniProt P25116); test: Platelet aggregation assay for thrombin receptor antagonist activity (washed human platelets stimulated with α-thrombin); format: cell-based; details: not given
T1 construct: washed human platelets are prepared from blood drawn from healthy volunteers; endogenous in cells; host or cells: washed human platelets from healthy volunteers
T1 sequence (P25116 22-425): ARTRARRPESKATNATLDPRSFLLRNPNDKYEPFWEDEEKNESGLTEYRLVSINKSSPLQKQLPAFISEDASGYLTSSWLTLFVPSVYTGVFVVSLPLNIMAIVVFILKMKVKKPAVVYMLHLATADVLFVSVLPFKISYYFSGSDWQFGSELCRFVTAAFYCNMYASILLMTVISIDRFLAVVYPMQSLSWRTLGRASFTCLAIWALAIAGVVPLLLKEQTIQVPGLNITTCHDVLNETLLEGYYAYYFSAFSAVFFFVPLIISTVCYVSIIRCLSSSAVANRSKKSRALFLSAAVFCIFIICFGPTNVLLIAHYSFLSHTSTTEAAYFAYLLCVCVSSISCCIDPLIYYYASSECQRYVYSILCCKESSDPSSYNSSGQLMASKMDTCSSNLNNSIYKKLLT
Protocol: The compounds of the present invention may be tested for thrombin receptor antagonist activity by using a platelet aggregation assay. In this assay, washed human platelets are prepared from blood drawn from healthy volunteers who have not ingested any medications for two weeks prior to donation. Blood is drawn into 12.5% (vol/vol) ACD (85 mM sodium citrate, 111 mM dextrose, 71 mM citric acid) containing 0.1% (vol/vol) PGI2 (0.05 mg/mL PGI2, 100 mM Tris, pH 12). Platelet-rich plasma was obtained by centrifugation at 160×g for 20 minutes. The platelets were pelleted by centrifugation at 760×g for 10 minutes and resuspended in CGS (13 mM trisodium citrate, 120 mM sodium chloride, 30 mM dextrose, pH 7.0) containing 0.1% (vol/vol) PGI2, repelleted and resuspended in Tyrodes buffer (10 mM Hepes, 12 mM sodium bicarbonate, 138 mM sodium chloride, 5.5 mM glucose, 2.9 mM potassium chloride, 1.0 mM calcium chloride, pH 7.4) and stored at 37° C. Approximately 0.4-10 nM α-thrombin is used to stimulate platelet aggregation in control reactions which are monitored by aggregometry using an aggregometer. Candidate antagonists are added to the platelet mixture followed by the addition of thrombin in order to assess their ability to prevent thrombin-mediated aggregation.
Platelet aggregation can also be measured with washed platelets in 96-well microtiter plates as described in Fratantoni, J. C. et al., Am. J. Clin. Pathol. 94:613-617 (1990). The ability of the antagonists to block the thrombin receptor was assessed in this assay using various concentrations of antagonists. The concentration at which 50% inhibition of platelet aggregation is achieved is defined as IC50.

Compound	IC50
N=C(N)NCCC[C@H](NC(=O)[C@H](CC1CCCCC1)NC(=O)[C@H](CC1CCCCC1)NC(=O)[C@H](Cc1ccccc1)NCCC1CCCC1)C(=O)N[C@@H](CCCCN)C(=O)N1CCC[C@H]1C(=O)N[C@@H](CC(N)=O)C(=O)N[C@@H](CC(=O)O)C(=O)N[C@@H](CCCCN)C(N)=O [Compound 6] (H-[X23][Cha][Cha]RKPNDK-NH2)	10 µM
N=C(N)NCCC[C@H](NC(=O)[C@H](CC1CCCCC1)NC(=O)[C@H](CC1CCCCC1)NC(=O)[C@H](Cc1ccccc1)NCCCc1ccccc1)C(=O)N[C@@H](CCCCN)C(=O)N1CCC[C@H]1C(=O)N[C@@H](CC(N)=O)C(=O)N[C@@H](CC(=O)O)C(=O)N[C@@H](CCCCN)C(N)=O [Compound 7] (H-[X10][Cha][Cha]RKPNDK-NH2)	5 µM
CCCCCN[C@@H](Cc1ccccc1)C(=O)N[C@@H](CC1CCCCC1)C(=O)N[C@@H](CC1CCCCC1)C(=O)N[C@@H](CCCNC(=N)N)C(=O)N[C@@H](CCCCN)C(N)=O [Compound 14] (H-[X16][Cha][Cha]RK-NH2)	5 µM
CCCCCN(C)[C@@H](Cc1ccccc1)C(=O)N[C@@H](CC1CCCCC1)C(=O)N[C@@H](CC1CCCCC1)C(=O)N[C@@H](CCCNC(=N)N)C(=O)N[C@@H](CCCCN)C(N)=O [Compound 15] (X5-[Cha][Cha]RK-NH2)	10 µM
CN(CC(c1ccccc1)c1ccccc1)[C@@H](Cc1ccccc1)C(=O)N[C@@H](CC1CCCCC1)C(=O)N[C@@H](CC1CCCCC1)C(=O)N[C@@H](CCCNC(=N)N)C(=O)N[C@@H](CCCCN)C(N)=O [Compound 16] (X18-[Cha][Cha]RK-NH2)	10 µM
CCCCCN[C@H](Cc1ccccc1)C(=O)N[C@@H](CC1CCCCC1)C(=O)N[C@@H](CC1CCCCC1)C(=O)N[C@@H](CCCNC(=N)N)C(=O)N[C@@H](CCCCN)C(N)=O [Compound 22] (H-[X12][Cha][Cha]RK-NH2)	25 µM

same assay, conditions: washed human platelets, thrombin-mediated aggregation; read-out: IC50 (concentration at which 50% inhibition of platelet aggregation is achieved)

Compound	IC50
CC(C)CCN[C@@H](Cc1ccccc1)C(=O)N[C@@H](CC1CCCCC1)C(=O)N[C@@H](CC1CCCCC1)C(=O)N[C@@H](CCCNC(=N)N)C(=O)N[C@@H](CCCCN)C(=O)N1CCC[C@H]1C(=O)N[C@@H](CC(N)=O)C(=O)N[C@@H](CC(=O)O)C(=O)N[C@@H](CCCCN)C(N)=O [Compound 1] (H-[X24][Cha][Cha]RKPNDK-NH2)	5 µM
CSCCCN[C@@H](Cc1ccccc1)C(=O)N[C@@H](CC1CCCCC1)C(=O)N[C@@H](CC1CCCCC1)C(=O)N[C@@H](CCCNC(=N)N)C(=O)N[C@@H](CCCCN)C(=O)N1CCC[C@H]1C(=O)N[C@@H](CC(N)=O)C(=O)N[C@@H](CC(=O)O)C(=O)N[C@@H](CCCCN)C(N)=O [Compound 2] (H-[X17][Cha][Cha]RKPNDK-NH2)	10 µM
CCCCCCCN[C@@H](Cc1ccccc1)C(=O)N[C@@H](CC1CCCCC1)C(=O)N[C@@H](CC1CCCCC1)C(=O)N[C@@H](CCCNC(=N)N)C(=O)N[C@@H](CCCCN)C(=O)N1CCC[C@H]1C(=O)N[C@@H](CC(N)=O)C(=O)N[C@@H](CC(=O)O)C(=O)N[C@@H](CCCCN)C(N)=O [Compound 3] (H-[X3][Cha][Cha]RKPNDK-NH2)	10 µM
CCCCN[C@@H](Cc1ccccc1)C(=O)N[C@@H](CC1CCCCC1)C(=O)N[C@@H](CC1CCCCC1)C(=O)N[C@@H](CCCNC(=N)N)C(=O)N[C@@H](CCCCN)C(=O)N1CCC[C@H]1C(=O)N[C@@H](CC(N)=O)C(=O)N[C@@H](CC(=O)O)C(=O)N[C@@H](CCCCN)C(N)=O [Compound 4] (H-[X15][Cha][Cha]RKPNDK-NH2)	5 µM
CCCCCN[C@@H](Cc1ccccc1)C(=O)N[C@@H](CC1CCCCC1)C(=O)N[C@@H](CC1CCCCC1)C(=O)N[C@@H](CCCNC(=N)N)C(=O)N[C@@H](CCCCN)C(=O)N1CCC[C@H]1C(=O)N[C@@H](CC(N)=O)C(=O)N[C@@H](CC(=O)O)C(=O)N[C@@H](CCCCN)C(N)=O [Compound 5] (H-[X16][Cha][Cha]RKPNDK-NH2)	2.5 µM
N=C(N)NCCC[C@H](NC(=O)[C@H](CC1CCCCC1)NC(=O)[C@H](CC1CCCCC1)NC(=O)[C@H](Cc1ccccc1)N(CC1CCCCC1)CC1CCCCC1)C(=O)N[C@@H](CCCCN)C(=O)N1CCC[C@H]1C(=O)N[C@@H](CC(N)=O)C(=O)N[C@@H](CC(=O)O)C(=O)N[C@@H](CCCCN)C(N)=O [Compound 8] (X14-[Cha][Cha]RKPNDK-NH2)	5 µM
CCCCCN[C@@H](CCc1ccccc1)C(=O)N[C@@H](CC1CCCCC1)C(=O)N[C@@H](CC1CCCCC1)C(=O)N[C@@H](CCCNC(=N)N)C(=O)N[C@@H](CCCCN)C(N)=O [Compound 9] (H-[X22][Cha][Cha]RK-NH2)	15 µM
CCC(Oc1ccccc1)C(=O)N[C@@H](CC1CCCCC1)C(=O)N[C@@H](CC1CCCCC1)C(=O)N[C@@H](CCCNC(=N)N)C(=O)N[C@@H](CCCCN)C(N)=O (stereo partly drawn) [Compound 10, 2-Phenoxybutyryl-Cha-Cha-Arg-Lys-NH2] ({Butanoyl(2-OPh)}-[Cha][Cha]RK-NH2)	10 µM
CCCCCN1Cc2ccccc2C[C@H]1C(=O)N[C@@H](CC1CCCCC1)C(=O)N[C@@H](CC1CCCCC1)C(=O)N[C@@H](CCCNC(=N)N)C(=O)N[C@@H](CCCCN)C(N)=O [Compound 11, (N-n-pentyl-Tic)-Cha-Cha-Arg-Lys-NH2] (X4-[Cha][Cha]RK-NH2)	2.5 µM
N=C(N)NCCC[C@H](NC(=O)[C@H](CC1CCCCC1)NC(=O)[C@H](CC1CCCCC1)NC(=O)[C@@H]1Cc2ccccc2CN1CC1CCCCC1)C(=O)N[C@@H](CCCCN)C(N)=O [Compound 12] (X11-[Cha][Cha]RK-NH2)	20 µM
CC(C)(C)CN1Cc2ccccc2C[C@H]1C(=O)N[C@@H](CC1CCCCC1)C(=O)N[C@@H](CC1CCCCC1)C(=O)N[C@@H](CCCNC(=N)N)C(=O)N[C@@H](CCCCN)C(N)=O [Compound 13] (X19-[Cha][Cha]RK-NH2)	5 µM
CN(Cc1cccc(Oc2ccccc2)c1)[C@@H](Cc1ccccc1)C(=O)N[C@@H](CC1CCCCC1)C(=O)N[C@@H](CC1CCCCC1)C(=O)N[C@@H](CCCNC(=N)N)C(=O)N[C@@H](CCCCN)C(N)=O [Compound 17] (X1-[Cha][Cha]RK-NH2)	15 µM
CN(Cc1ccc(-c2ccccc2)cc1)[C@@H](Cc1ccccc1)C(=O)N[C@@H](CC1CCCCC1)C(=O)N[C@@H](CC1CCCCC1)C(=O)N[C@@H](CCCNC(=N)N)C(=O)N[C@@H](CCCCN)C(N)=O [Compound 18] (X25-[Cha][Cha]RK-NH2)	5 µM
CN(Cc1ccccc1)[C@@H](Cc1ccccc1)C(=O)N[C@@H](CC1CCCCC1)C(=O)N[C@@H](CC1CCCCC1)C(=O)N[C@@H](CCCNC(=N)N)C(=O)N[C@@H](CCCCN)C(N)=O [Compound 19] (X9-[Cha][Cha]RK-NH2)	30 µM
CN(CC1CCCCC1)[C@@H](Cc1ccccc1)C(=O)N[C@@H](CC1CCCCC1)C(=O)N[C@@H](CC1CCCCC1)C(=O)N[C@@H](CCCNC(=N)N)C(=O)N[C@@H](CCCCN)C(N)=O [Compound 20] (X13-[Cha][Cha]RK-NH2)	15 µM
CCCCCN(CCCCC)[C@@H](Cc1ccccc1)C(=O)N[C@@H](CC1CCCCC1)C(=O)N[C@@H](CC1CCCCC1)C(=O)N[C@@H](CCCNC(=N)N)C(=O)N[C@@H](CCCCN)C(N)=O [Compound 21, (N,N-di-n-pentyl-Phe)-Cha-Cha-Arg-Lys-NH2] (X6-[Cha][Cha]RK-NH2)	10 µM
CCCCCCC(Oc1ccc2ccccc2c1)C(=O)N[C@@H](CC1CCCCC1)C(=O)N[C@@H](CC1CCCCC1)C(=O)N[C@@H](CCCNC(=N)N)C(=O)N[C@@H](CCCCN)C(N)=O (stereo partly drawn) [Compound 23] (X7-[Cha][Cha]RK-NH2)	5 µM
CCCCC(Oc1ccccc1)C(=O)N[C@@H](CC1CCCCC1)C(=O)N[C@@H](CC1CCCCC1)C(=O)N[C@@H](CCCNC(=N)N)C(=O)N[C@@H](CCCCN)C(N)=O (stereo partly drawn) [Compound 24] (X21-[Cha][Cha]RK-NH2)	15 µM
N=C(N)NCCC[C@H](NC(=O)[C@H](CC1CCCCC1)NC(=O)[C@H](CC1CCCCC1)NC(=O)c1ccccc1-c1ccccc1)C(=O)N[C@@H](CCCCN)C(N)=O [Compound 25] ({Benzoyl(2-Ph)}-[Cha][Cha]RK-NH2)	25 µM
CCCCCC/C(=C\c1ccccc1)CN[C@@H](CC1CCCCC1)C(=O)N[C@@H](CC1CCCCC1)C(=O)N[C@@H](CCCNC(=N)N)C(=O)N[C@@H](CCCCN)C(N)=O [Compound 26]	7.5 µM
CCCCC(Oc1cccc2ccccc12)C(=O)N[C@@H](CC1CCCCC1)C(=O)N[C@@H](CC1CCCCC1)C(=O)N[C@@H](CCCNC(=N)N)C(=O)N[C@@H](CCCCN)C(N)=O (stereo partly drawn) [Compound 27] (X20-[Cha][Cha]RK-NH2)	5 µM
